Like-named read-outs stand apart in the source and are kept apart here.
Assays:
TRAF6/Uev1A/Ubc13 = target: T1, TRAF6/Uev1A/Ubc13 (Homo sapiens, UniProt Q9Y4K3); test: TRAF6/Uev1A/Ubc13 plate-based ubiquitin ligase assay; assay type: biochemical
T1 sequence (Q9Y4K3 1-522): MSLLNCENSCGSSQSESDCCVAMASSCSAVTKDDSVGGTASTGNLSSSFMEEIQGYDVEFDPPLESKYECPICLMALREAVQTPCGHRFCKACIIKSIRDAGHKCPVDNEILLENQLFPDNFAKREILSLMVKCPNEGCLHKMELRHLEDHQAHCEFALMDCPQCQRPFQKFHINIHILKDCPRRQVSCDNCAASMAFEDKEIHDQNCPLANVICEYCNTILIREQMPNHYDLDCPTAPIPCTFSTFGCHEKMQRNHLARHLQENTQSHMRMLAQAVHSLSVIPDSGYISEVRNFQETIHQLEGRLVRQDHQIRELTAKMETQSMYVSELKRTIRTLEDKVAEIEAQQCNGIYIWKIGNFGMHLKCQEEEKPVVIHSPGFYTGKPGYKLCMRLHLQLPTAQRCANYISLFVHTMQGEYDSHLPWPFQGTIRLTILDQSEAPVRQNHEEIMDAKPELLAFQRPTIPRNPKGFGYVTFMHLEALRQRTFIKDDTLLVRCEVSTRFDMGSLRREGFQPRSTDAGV
Method in brief: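 Ligase activity was read as luminescence from anti-Flag/HRP detection of Flag-ubiquitin bound to casein-blocked Ni-plates alongside His-ubiquitin after a 1 h room-temperature reaction. Buffer: 62.5 mM Tris pH 7.5, 6.25 mM MgCl2, 1.0 mM DTT, 2 μM ATP; E1, Uev1a/Ubc13 and TRAF6 added last to start. IC50s derived across compound concentrations.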

[1] = test system: ICAM-1 expression in A549 cells; test: ICAM assay (IL-1 induced ICAM-1/CD54 expression in A549 cells); assay type: cell-based, human; conditions: Homo sapiens, A549, ICAM assay
Text: The expression of intercellular adhesion molecule (ICAM)-1 in endothelial cells is pivotal in supporting lymphocyte migration across the vascular endothelium. TNF/IL-1 induces the NF-kB pathway in which NF-kB acts as a transcription factor and activation of NF-kB induces ICAM expression. IkB inhibits NF-KB by binding to it and retaining NF-kB in the cytoplasm. Upon cytokine stimulation, several signaling molecule including TRAF6, IKKs, and TAK1 are activated which lead to the phosphorylation of IkB. Phosphorylated IkB is then ubiquitinated by the SCF complex and degraded by proteasome, thereby releasing NF-kB to translocate into the nucleus. In the nucleus, NF-kB binds to DNA and activates transcription of various genes that are involved in inflammation, cell survival, and apoptosis. The ICAM assay is a primary assay for HTS as well as a cell based assay for TRAF6 inhibitors.
The following materials are used 96-well plates; F12K complete medium that includes 10% FBS and 1% P/S (penicillin/streptomycin); 1×PBS; 5 ug/ml IL-1, Human CD54 (CALTAG Laboratory, Cat#MHCD5400-4); anti-mouse-IgG (Jackson Lab, Cat#115-035 146); and A549 cells.
Procedure. 10,000 A549 cells/well were seeded in 100 μl F12K complete medium in a 96-well white plate. The seeded plate was incubate at 37° C. incubator in 5% CO2 overnight. After the overnight incubation, 4 μl of diluted test compound was added and incubated for 1 hour at 37° C. After the 1 hour incubation, 4 μl of 25 ng/ml IL-1 was added to each well and the cells were stimulated at 37° C. for 4 hours.
After stimulation, the cells were stained with CD54 (1:1000 diluted with medium) and anti-mouse IgG (1:1100 diluted with medium) for 1 hour. Subsequently, the medium was removed and each well was washed with 200 μl of PBS three times. Detection of activity was performed by addition of 100 μl/well of lumino substrate.

A549 cells = test: Cell proliferation PAD assay, A549; assay type: cell-based; conditions: Homo sapiens, 48 hours
Method in brief: (§1)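 2,000 cells/well; compound added at 24 h (duplicate, 6.3-fold series, 10 mM stock, 500× dilution into wells); 48 h, 37 °C/5% CO2. Formamide fix, DAPI stain, image-based counts of live (proliferation), apoptotic, dead cells.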

H1299 cells = test: Cell proliferation PAD assay, H1299; assay type: cell-based; conditions: Homo sapiens, 48 hours
Method in brief: as §1

[2] = NCI-H1299, 6pt, read-out: H1299 6pt
[3] = NCI-H1299, 3pt, read-out: H1299 3pt

| Structure (SMILES) | IC50 (TRAF6/Uev1A/Ubc13) [µM] | IC50 [1] [µM] | IC50 (A549 cells; 6pt, read-out: A549 6pt) [µM] | IC50 (H1299 cells; [2]) [µM] | IC50 (A549 cells; 3pt, read-out: A549 3pt) [µM] | IC50 (H1299 cells; [3]) [µM] |
| --- | --- | --- | --- | --- | --- | --- |
| O=S(=O)(c1c(Cl)ccc2nonc12)N1CCN(c2ccc(Cl)c(C(F)(F)F)c2)CC1 [compound 182, 5-chloro-4-({4-[4-chloro-3-(trifluoromethyl)phenyl]piperazin-1-yl}sulfonyl)-2,1,3-benzoxadiazole] | ≥ 20 | ≥ 20 | 1 to 20 | 1 to 20 | – | – |
| O=S(=O)(c1ccc(Cl)c2nonc12)N1CCN(CCOCCO)CC1 [compound 185, 2-(2-{4-[(7-chloro-2,1,3-benzoxadiazol-4-yl)sulfonyl]piperazin-1-yl}ethoxy)ethanol] | ≥ 20 | ≥ 20 | 1 to 20 | 1 to 20 | – | – |
| CN1CCN(S(=O)(=O)c2ccc(Cl)c3nonc23)CC1 [compound 189, 4-chloro-7-[(4-methylpiperazin-1-yl)sulfonyl]-2,1,3-benzoxadiazole] | ≥ 20 | ≥ 20 | – | – | 1 to 20 | 1 to 20 |
| CN1CCN(S(=O)(=O)c2ccc(Sc3cccc4cccnc34)c3nonc23)CC1 [compound 191, 8-({7-[(4-methylpiperazin-1-yl)sulfonyl]-2,1,3-benzoxadiazol-4-yl}thio)quinoline] | ≥ 20 | – | – | – | 1 to 20 | 1 to 20 |
| Nc1ccc(S(=O)(=O)Nc2ccnc(Cl)c2)c2nonc12 [compound 195, 7-amino-N-(2-chloropyridin-4-yl)-2,1,3-benzoxadiazole-4-sulfonamide] | ≥ 20 | – | – | – | ≥ 20 | ≥ 20 |
| CC1CN(c2ccc3nonc3c2S(=O)(=O)N2CC(C)OC(C)C2)CC(C)O1 (stereo not shown) [compound 205, 5-(2,6-dimethylmorpholin-4-yl)-4-[(2,6-dimethylmorpholin-4-yl)sulfonyl]-2,1,3-benzoxadiazole] | ≥ 20 | – | – | – | ≥ 20 | 1 to 20 |
| CC1CN(c2ccc(S(=O)(=O)N3CC(C)OC(C)C3)c3nonc23)CC(C)O1 (stereo not shown) [compound 211, 4-(2,6-dimethylmorpholin-4-yl)-7-[(2,6-dimethylmorpholin-4-yl)sulfonyl]-2,1,3-benzoxadiazole] | ≥ 20 | – | – | – | ≥ 20 | ≥ 20 |
| CC1CN(S(=O)(=O)c2ccc(Sc3cccc4cccnc34)c3nonc23)CC(C)O1 (stereo not shown) [compound 213, 8-({7-[(2,6-dimethylmorpholin-4-yl)sulfonyl]-2,1,3-benzoxadiazol-4-yl}thio)quinoline] | ≥ 20 | – | – | – | 1 to 20 | ≥ 20 |
| Nc1ccc2cnn(S(=O)(=O)c3ccc(Cl)c4nonc34)c2c1 [compound 221, 1-[(7-chloro-2,1,3-benzoxadiazol-4-yl)sulfonyl]-1H-indazol-6-amine] | ≥ 20 | – | – | – | ≥ 20 | ≥ 20 |
| O=S(=O)(Nc1ccc2[nH]ncc2c1)c1ccc(Sc2cccc3cccnc23)c2nonc12 [compound 224, N-1H-indazol-5-yl-7-(quinolin-8-ylthio)-2,1,3-benzoxadiazole-4-sulfonamide] | ≥ 20 | – | – | – | 1 to 20 | ≥ 20 |
| O=S(=O)(c1ccc(Cl)c2nonc12)N1CCC(Oc2ccccc2C(F)(F)F)CC1 [compound 230, 4-chloro-7-({4-[2-(trifluoromethyl)phenoxy]piperidin-1-yl}sulfonyl)-2,1,3-benzoxadiazole] | 1 to 20 | – | – | – | 1 to 20 | 1 to 20 |
| CC(=O)C1(c2ccccc2)CCN(c2ccc([N+](=O)[O-])c3nonc23)CC1 [compound 231, 1-[1-(7-nitro-2,1,3-benzoxadiazol-4-yl)-4-phenylpiperidin-4-yl]ethanone] | 1 to 20 | – | – | – | ≥ 20 | 1 to 20 |
| O=S(=O)(c1ccc(F)c2nonc12)N1CCC(Oc2ccccc2C(F)(F)F)CC1 [compound 232, 4-fluoro-7-({4-[2-(trifluoromethyl)phenoxy]piperidin-1-yl}sulfonyl)-2,1,3-benzoxadiazole] | 1 to 20 | – | – | – | 1 to 20 | 1 to 20 |
| O=[N+]([O-])c1ccc(N2CCC(Oc3ccccc3C(F)(F)F)CC2)c2nonc12 [compound 233, 4-nitro-7-{4-[2-(trifluoromethyl)phenoxy]piperidin-1-yl}-2,1,3-benzoxadiazole] | < 1 | – | – | – | ≥ 20 | ≥ 20 |
| O=S(=O)(c1cccc2nonc12)N1CCC(Oc2ncccn2)CC1 [compound 235] | ≥ 20 | – | – | – | ≥ 20 | ≥ 20 |
| CC1(C)CCN(c2ccc([N+](=O)[O-])c3nonc23)CC1 [compound 242, 4-(4,4-dimethylpipendin-1-yl)-7-nitro-2,1,3-benzoxadiazole] | ≥ 20 | – | ≥ 20 | ≥ 20 | – | – |
| CC1(C)CCN(S(=O)(=O)c2ccc(F)c3nonc23)CC1 [compound 243, 4-[(4,4-dimethylpiperidin-1-yl)sulfonyl]-7-fluoro-2,1,3-benzoxadiazole] | ≥ 20 | – | < 1 | ≥ 20 | – | – |
| O=S(=O)(c1ccc(Sc2ccncc2)c2nonc12)N1CCC(O)(c2ccc(Cl)cc2)CC1 [compound 246, 4-(4-chlorophenyl)-1-{[7-(pyridin-4-ylthio)-2,1,3-benzoxadiazol-4-yl]sulfonyl}piperidin-4-ol] | 1 to 20 | – | ≥ 20 | 1 to 20 | – | – |
| O=S(=O)(Nc1cccc(F)c1F)c1ccc(Cl)c2nonc12 [compound 271, 7-chloro-N-(2,3-difluorophenyl)-2,1,3-benzoxadiazole-4-sulfonamide] | 1 to 20 | ≥ 20 | – | – | – | – |
| O=S(=O)(Nc1cccc(F)c1F)c1ccc(F)c2nonc12 [compound 274, N-(2,3-difluorophenyl)-7-fluoro-2,1,3-benzoxadiazole-4-sulfonamide] | 1 to 20 | ≥ 20 | – | – | – | – |
| O=C(OCc1ccccc1)N1CCN(c2ccc([N+](=O)[O-])c3nonc23)CC1 [compound 278, benzyl 4-(7-nitro-2,1,3-benzoxadiazol-4-yl)piperazine-1-carboxylate] | ≥ 20 | – | – | – | 1 to 20 | 1 to 20 |
| Nc1ccc(N2CCN(c3ncc(C(F)(F)F)cc3Cl)CC2)c2nonc12 [compound 279, 7-{4-[3-chloro-5-(trifluoromethyl)pyridin-2-yl]piperazin-1-yl}-2,1,3-benzoxadiazol-4-amine] | ≥ 20 | – | – | – | 1 to 20 | 1 to 20 |
| O=[N+]([O-])c1ccc(N2CCC(Oc3ncccn3)CC2)c2nonc12 [compound 280, 4-nitro-7-[4-(pyrimidin-2-yloxy)piperidin-1-yl]-2,1,3-benzoxadiazole] | ≥ 20 | – | – | – | ≥ 20 | ≥ 20 |
| O=[N+]([O-])c1ccc(N2CCC(c3ccncc3)CC2)c2nonc12 [compound 283, 4-nitro-7-(4-pyridin-4-ylpiperidin-1-yl)-2,1,3-benzoxadiazole] | ≥ 20 | – | – | – | ≥ 20 | ≥ 20 |
| CC(C)(C)c1ccc(-c2cccc3nonc23)cc1 [compound 307, 4-(4-Tert-butylphenyl)-2,1,3-benzoxadiazole] | ≥ 20 | – | ≥ 20 | ≥ 20 | – | – |
